In one series the target is Histone deacetylase 1 (Homo sapiens, UniProt Q13547). As to the kind of experiment: Inhibition of HDAC1 (unknown origin) using Boc-Lys (acetyl)-AMC as substrate incubated for 10 mins followed by substrate addition measured after 30 mins by fluorescence assay.
The next series deals with Histone deacetylase 3 (Homo sapiens, UniProt O15379). Put plainly: Inhibition of HDAC3 (unknown origin) using Boc-Lys (acetyl)-AMC as substrate incubated for 10 mins followed by substrate addition measured after 30 mins by fluorescence assay.
In series [1] the test system is HCT-116. Put plainly: Antitumor activity against human HCT116 cells xenografted in BALB/c nude mouse assessed as relative tumor increment ratio at 100 mg/kg/day administered via oral gavage for 16 days measured every 3 days. It counts as functional.
The subject of series [2] is Mus musculus. As to the kind of experiment: Toxicity in BALB/c nude mouse xenografted with human HCT116 cells assessed as body weight at 100 mg/kg/day administered via oral gavage for 16 days (reference value: 19.91 +/- 1.26 g). It counts as organism-based. The following applies: in vivo, 384 h. Background: In xenograft studies the graft and the host belong to different species.

The test system of series [3] is U-937. Put plainly: Antitumor activity against human U937 cells xenografted in BALB/c nude mouse assessed as tumor growth inhibition at 100 mg/kg/day administered via oral gavage for 13 days measured every 3 days. The settings on record: U-937, po, read-out: TGI. It counts as functional.
In series [4] the test system is HL-60. As to the kind of experiment: Induction of apoptosis in human HL60 cells assessed as increase in cleaved PARP level at 1 to 5 uM after 48 hrs by Western blot analysis. It counts as functional, cell-based.
Series [5] addresses T1, Histone deacetylase (HDAC1 and HDAC2) (Homo sapiens) (UniProt Q13547+Q92769). Put plainly: Inhibition of HDAC1/2 in human HL60 cells assessed as increase in acetylated histone H4 level at 1 to 5 uM after 48 hrs by Western blot analysis. It counts as cell-based.
In series [6] the test system is Mus musculus. Put plainly: Toxicity in BALB/c nude mouse xenografted with human U937 cells assessed as body weight at 100 mg/kg/day administered via oral gavage for 13 days (reference value: 25.39 +/- 1.18 g). The following applies: in vivo, 312 h. The format is organism-based.
The target in series [7] is T1, Histone deacetylase (HDAC1 and HDAC2) (Homo sapiens). Put plainly: Inhibition of HDAC1/2 in human HL60 cells assessed as increase in acetylated histone H3 level at 1 to 5 uM after 48 hrs by Western blot analysis. It counts as cell-based.
Series [8] concerns HL-60. Put plainly: Induction of apoptosis in human HL60 cells assessed as decrease in procaspase-3 level at 1 to 5 uM after 48 hrs by Western blot analysis. The format is functional, cell-based. A general note: In western blotting, separated proteins are transferred to a membrane and probed.
Series [9] relates to HL-60. Put plainly: Induction of apoptosis in human HL60 cells assessed as increase in cleaved caspase-3 level at 1 to 5 uM after 48 hrs by Western blot analysis. It counts as functional, cell-based.
Series [10] relates to HCT-116. Put plainly: Antitumor activity against human HCT116 cells xenografted in BALB/c nude mouse assessed as tumor growth inhibition at 100 mg/kg/day administered via oral gavage for 16 days measured every 3 days. The format is functional. The following applies: HCT-116, po, read-out: TGI.
The next series can be described thus: cells. The settings on record: Homo sapiens, ES-2, 48 h.
Another series has as its target Histone deacetylase 2 (Homo sapiens, UniProt Q92769). As to the kind of experiment: Inhibition of HDAC2 (unknown origin) using Boc-Lys (acetyl)-AMC as substrate incubated for 10 mins followed by substrate addition measured after 30 mins by fluorescence assay.
For series [11], the system named is U-937. As to the kind of experiment: Antitumor activity against human U937 cells xenografted in BALB/c nude mouse assessed as tumor growth inhibition at 50 mg/kg/day administered via oral gavage for 13 days measured every 3 days. The format is functional. The following applies: U-937, po, read-out: TGI.
In series [12] the test system is Mus musculus. As to the kind of experiment: Toxicity in BALB/c nude mouse xenografted with human U937 cells assessed as body weight at 50 mg/kg/day administered via oral gavage for 13 days (reference value: 25.39 +/- 1.18 g). The settings on record: in vivo, 312 h. It counts as organism-based.
Series [13] relates to HL-60. As to the kind of experiment: Induction of apoptosis in human HL60 cells assessed as increase in cleaved caspase-3 level at 5 uM after 48 hrs by Western blot analysis. It counts as functional, cell-based.
The nature of series [14]: Inhibition of class 1 HDAC in human HL60 cells using Boc-Ac-Lys-AMC as substrate incubated for 3 hrs followed by substrate addition measured after 3 hrs by fluorescence assay. The format is cell-based. The settings on record: HL-60, 3 h.
Series [15] deals with U-937. Put plainly: Antitumor activity against human U937 cells xenografted in BALB/c nude mouse assessed as relative tumor increment ratio at 50 mg/kg/day administered via oral gavage for 13 days measured every 3 days. It counts as functional.
Series [16] relates to HCT-116. As to the kind of experiment: Antitumor activity against human HCT116 cells xenografted in BALB/c nude mouse assessed as relative tumor increment ratio at 50 mg/kg/day administered via oral gavage for 16 days measured every 3 days. It counts as functional.
Series [17] relates to Mus musculus. As to the kind of experiment: Toxicity in BALB/c nude mouse xenografted with human HCT116 cells assessed as body weight at 50 mg/kg/day administered via oral gavage for 16 days (reference value: 19.91 +/- 1.26 g). The format is organism-based. The settings on record: in vivo, 384 h.
In series [18] the test system is HL-60. As to the kind of experiment: Induction of apoptosis in human HL60 cells assessed as increase in cleaved PARP level at 5 uM after 48 hrs by Western blot analysis. It counts as functional, cell-based.
The subject of series [19] is Mus musculus. Put plainly: Toxicity in BALB/c nude mouse xenografted with human U937 cells assessed as body weight loss at 50 mg/kg/day administered via oral gavage for 13 days. The following applies: in vivo, 312 h.
Series [20] relates to HL-60. Put plainly: Induction of apoptosis in human HL60 cells assessed as decrease in procaspase-3 level at 5 uM after 48 hrs by Western blot analysis. The format is functional, cell-based.
Series [21] deals with HCT-116. Put plainly: Antitumor activity against human HCT116 cells xenografted in BALB/c nude mouse assessed as tumor growth inhibition at 50 mg/kg/day administered via oral gavage for 16 days measured every 3 days. The settings on record: HCT-116, po, read-out: TGI. It counts as functional.

The structures appear in SMILES notation. Active and inactive are the calls of the source. The rule behind the calls is not given here.

What is called IC50 is the concentration that inhibits the measured activity by half. High values mean weaker potency, low ones greater potency. As usually defined, the T/C is the ratio of treated to control.

T1 sequence (Q13547 whole entry, looked up): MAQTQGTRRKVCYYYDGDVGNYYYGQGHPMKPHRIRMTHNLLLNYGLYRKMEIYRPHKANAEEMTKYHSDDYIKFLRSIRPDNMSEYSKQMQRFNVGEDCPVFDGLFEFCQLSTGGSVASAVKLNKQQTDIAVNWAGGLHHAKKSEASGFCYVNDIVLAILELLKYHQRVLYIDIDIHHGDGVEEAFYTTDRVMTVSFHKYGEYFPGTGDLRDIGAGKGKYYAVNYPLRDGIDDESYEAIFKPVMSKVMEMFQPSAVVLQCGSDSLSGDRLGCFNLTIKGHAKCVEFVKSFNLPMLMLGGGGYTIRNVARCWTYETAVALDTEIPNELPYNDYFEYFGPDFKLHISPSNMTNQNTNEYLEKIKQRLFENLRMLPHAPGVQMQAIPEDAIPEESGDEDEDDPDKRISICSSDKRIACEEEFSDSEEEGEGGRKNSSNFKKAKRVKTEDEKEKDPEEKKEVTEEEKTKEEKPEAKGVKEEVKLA
T1 sequence (Q92769 whole entry, looked up): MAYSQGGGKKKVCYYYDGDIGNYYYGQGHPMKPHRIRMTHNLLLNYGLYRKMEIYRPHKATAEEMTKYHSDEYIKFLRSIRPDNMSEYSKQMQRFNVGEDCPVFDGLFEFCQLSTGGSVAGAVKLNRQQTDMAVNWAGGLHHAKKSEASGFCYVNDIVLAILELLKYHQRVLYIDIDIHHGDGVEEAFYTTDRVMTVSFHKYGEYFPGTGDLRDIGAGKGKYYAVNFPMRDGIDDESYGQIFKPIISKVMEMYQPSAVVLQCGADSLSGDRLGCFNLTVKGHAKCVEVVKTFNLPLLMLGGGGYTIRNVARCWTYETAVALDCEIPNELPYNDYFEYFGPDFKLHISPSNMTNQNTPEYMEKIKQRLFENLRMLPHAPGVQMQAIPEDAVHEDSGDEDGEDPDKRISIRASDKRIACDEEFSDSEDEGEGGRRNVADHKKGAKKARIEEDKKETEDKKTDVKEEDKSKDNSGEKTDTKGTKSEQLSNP
Histone deacetylase 1, sequence (Q13547 whole entry): as the sequence (Q13547 whole entry, looked up) above
Histone deacetylase 3, sequence (O15379 whole entry): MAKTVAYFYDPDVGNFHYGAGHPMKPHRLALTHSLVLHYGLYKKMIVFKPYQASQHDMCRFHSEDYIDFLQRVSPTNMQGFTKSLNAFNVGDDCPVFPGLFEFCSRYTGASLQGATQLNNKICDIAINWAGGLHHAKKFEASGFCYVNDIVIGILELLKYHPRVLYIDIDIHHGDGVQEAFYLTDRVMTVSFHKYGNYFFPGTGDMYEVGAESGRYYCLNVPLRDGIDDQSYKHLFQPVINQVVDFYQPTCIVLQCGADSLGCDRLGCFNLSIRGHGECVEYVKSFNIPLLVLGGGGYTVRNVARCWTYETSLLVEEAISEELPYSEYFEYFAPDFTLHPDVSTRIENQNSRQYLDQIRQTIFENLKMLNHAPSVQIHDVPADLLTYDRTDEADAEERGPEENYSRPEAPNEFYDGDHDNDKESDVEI
Histone deacetylase 2, sequence (Q92769 whole entry): as the sequence (Q92769 whole entry, looked up) above

For `COc1ccc(C(=O)N[C@@H](Cc2c[nH]c3ccccc23)C(=O)NCc2ccc(C(=O)Nc3ccccc3N)cc2)cc1`, the IC50 at Histone deacetylase 1 is 0.0206 µM; against Histone deacetylase 3, 0.138 µM; in the series “cells”, greater than 20 µM; at Histone deacetylase 2 it was 0.157 µM. Besides, the T/C in the series on HCT-116 [1] was 59%. In addition, the results for the Activity in the series with Mus musculus [2] and with Mus musculus [6] were 21.59 g and 25.04 g, respectively. For the same compound, the inhibition in vivo at 100 mg/kg/day with U-937 [3] stood at 51%; in the series with HCT-116 [10], 49%. For the same compound, the result with HL-60 [4], with HL-60 [8] and with HL-60 [9] was Active. The inhibition entry in series [5] and in series [7] was “Active” each time.
For `Nc1ccccc1NC(=O)c1ccc(CNC(=O)OCc2cccnc2)cc1` [ENTINOSTAT], the inhibition in vivo at 50 mg/kg/day was determined as 60% in the series with U-937 [11] and 62% with HCT-116 [21]. Also, the Activity in the series on Mus musculus [12] is 19.77 g; in the series with Mus musculus [17], 18.87 g; with Mus musculus [19] it was “Toxic”. The result in the series with HL-60 [13], in the series with HL-60 [18] and in the series with HL-60 [20] was Active. Besides, the IC50 is 0.62 µM in [14] and greater than 20 µM in the series “cells”. Also, the T/C in the series with U-937 [15] turned out to be 32%; with HCT-116 [16], 46%.

For the origin of these results see ChEMBL document CHEMBL4020724, “Selective HDAC inhibitors with potent oral activity against leukemia and colorectal cancer: Design, structure-activity relationship and anti-tumor activity study” (Eur J Med Chem, 2017).
